The values below come from patent US20200071667A1, “COMPOSITION COMPRISING GLYCYRRHIZIN FOR INDUCING DIFFERENTIATION INTO MYELOID-DERIVED SUPPRESSOR CELL FROM MYELOID CELL” (Konkuk University Glocal Industry-Academic Collabo, priority 2018, published 2020).

Test [1] relates to myeloid cells obtained from blood, the heart, and the lungs. As to the kind of experiment: Flow cytometric analysis of MDSC ratio in myeloid cells of mice with LPS-induced sepsis (in vivo). Also on record: species or system C57BL/6 mice. As for the experimental part:
(§1) Animal experiments were performed according to the National Institutes of Health (NIH) guidelines for the care and use of experimental animals. This study was conducted with the approval of the Konkuk University Animal Care and Use Committee (KU16062). 8-week-old male C57BL/6 mice without specific pathogens were used, and as needed, experimental groups were divided into three groups: a control, an LPS group, and an LPS+GR group.
(§2) Specifically, 0.1 ml of phosphate buffered saline (PBS; Gibco, Grand Island, N.Y., USA) was injected intraperitoneally (i.p.) into mice of the control, and 12 hours after the injection, 0.1 ml of PBS was intraperitoneally injected again into each mouse. 1 μg of LPS (Escherichia coli serotype 0111:B4, Sigma-Aldrich, St. Louis, Mo., USA) dissolved in 0.1 ml of PBS was injected intraperitoneally (i.p.) into mice of the LPS group to induce sepsis, and 12 hours after sepsis induction, 0.1 ml of PBS was intraperitoneally injected into each mouse. […]
The myeloid cells obtained from blood, the heart, or the lungs were washed with fluorescence-activated cell sorting (FACS) buffer (PBS containing 1% bovine serum albumin and 0.01% NaN3). […]
(A flow cytometer gives signals particle by particle.)

Test [2] has as its system heart tissues and lung tissues. As to the kind of experiment: Histopathologic analysis and injury score of heart and lung tissues in LPS-induced sepsis. Type of test: in vivo, C57BL/6 mice. The settings on record: 5-point scale 0-4; LPS 1 μg i.p.; GR 100 mg/kg i.p. twice. As for the experimental part:
as §1
Specifically, 0.1 ml of phosphate buffered saline (PBS; Gibco, Grand Island, N.Y., USA) was injected intraperitoneally (i.p.) into mice of the control, and 12 hours after the injection, 0.1 ml of PBS was intraperitoneally injected again into each mouse. […]
Specifically, the heart tissues and lung tissues of mice of each experimental group prepared in Example 1 were fixed in a 4% paraformaldehyde solution (Biosesang, Seongnam, Korea) at 25° C. overnight and inserted into paraffin blocks. […] Heart (including left and right ventricles) or lung injury was scored based on Table 2 below. Each score was determined by a 5-point scale such as 0: minimal injury, 1: minor injury, 2: moderate injury, 3: severe injury, and 4: maximum injury.

The test system of test [3] is tumor necrosis factor (TNF)-α. As to the kind of experiment: ELISA of TNF-α in BALF and blood of mice with LPS-induced sepsis. The following applies: 12 hours after final injection. Type of test: in vivo, C57BL/6 mice. As for the experimental part:
as §2
(§3) Specifically, for the analysis of bronchoalveolar lavage fluid and blood, 12 hours after the final injection into mice of each experimental group of Example 1, 1 μg/g of Zoletil®50 (a combined preparation of tiletamine and zolazepam, Virbac Laboratories, Carros, France) as an anesthetic and 0.1 U/g of heparin sodium (Green Cross Co., Yongin, Korea) were intraperitoneally injected into each mouse to minimize the effect of aches or pains on immunity. […] The levels of tumor necrosis factor (TNF)-α, IL-6, and IL-1β in BALF and blood were measured using a mouse enzyme-linked ELISA kit (R&D Systems Inc., Minneapolis, Minn., USA) according to the manufacturer's instructions. Samples collected from each group were analyzed in triplicate.
On the technique in general: ELISA stands for enzyme-linked immunosorbent assay.

Another test has as its system IL-6. As to the kind of experiment: ELISA of IL-6 in BALF and blood of mice with LPS-induced sepsis. Type of test: in vivo, C57BL/6 mice. The settings on record: 12 hours after final injection. As for the experimental part: as §2, §3

lipopolysaccharide [LPS]: in test [1] (myeloid cells from blood, heart or lungs, LPS 1 μg i.p., GR 100 mg/kg i.p. twice), the “ratio of MDSCs to myeloid cells (MDSCs/myeloid cells)” value is “significantly reduced compared to the control”. The “blood ratio of MDSCs to CD11+GR1 myeloid cells” value in test [1] (preliminary study using 6 mice with LPS-induced sepsis, blood) is recorded as 18.4±3.13%. Further, the “injury score, heart tissues” value in test [2] is given as 3.3±0.8. For the same substance, the “injury score, lung tissues” value in test [2] came out at 3.5±0.5. Also, the TNF-α was determined as 284.20 ± 56.96 pg/µL in test [3] (BALF) and 98.78 ± 9.17 pg/µL in test [3] (Blood). Moreover, the IL-6 in the test with IL-6 (BALF) came to 650.26 ± 11.02 pg/µL; in the test with IL-6 (Blood), 172.63 ± 14.22 pg/µL.
